In patent US7879795B2, “Enhancement of tigecycline potency using efflux pump inhibitors” (Mpex Pharmaceuticals, Inc., priority 2004, dated 2011):

Tests used:
[1] = tested on: strain PAM1723 of P. aeruginosa; format: in vitro ADME; conditions: in words
Method: Stability of compounds was also evaluated using a bioassay. The test compound at 320 μg/ml was treated with rabbit kidney supernatant for 0, 0.5, 1 and 2 hours.

[2] = Stability in human kidney tissue preparations; format: in vitro ADME; conditions: in words
Excerpt: The pattern of in vitro stability of compound 3 (stable in serum but unstable in tissues) observed in rodents was also reproduced using human kidney tissues or serum. FIG. 7 compares the in vitro stability of compounds 1 and 3 in human kidney tissue preparations.
FIG. 8 depicts formation of the metabolite, compound 67, in human kidney tissue. Concomitant with the disappearance of compound 3, generation of the expected metabolite of the presumed intralysosomal degradation, compound 67, was detected using human kidney.

PAM 1020, wt = assay: Tigecycline potentiation checkerboard assay, PAM 1020; format: cell-based, P. aeruginosa; design: Tigecycline MIC in the presence of Compound 21: unit not given here; conditions: PAM 1020
Method: (§1) The ability of compound 21 to increase susceptibility to tigecycline was also assessed. The tigecycline potentiating activity of compound 21 was assessed by the checkerboard assay (Antimicrobial Combinations, Antibiotics in Laboratory Medicine, ed. Victor Lorian, M.D., Fourth edition, 1996, pp 333-338, which is incorporated herein by reference in its entirety) using a broth micro-dilution method performed as recommended by the CSLI (Clinical and Laboratory Standards Institute, formerly NCCLS) guidelines (National Committee for Clinical Laboratory Standards 2003. Methods for Dilution Antimicrobial Susceptibility Tests for Bacteria That Grow Aerobically—Sixth Edition; Approved Standard. NCCLS Document M7-A6, Vol 20 No. 2). In this assay, multiple dilutions of the two drugs, compound 21 and tigecycline, were tested alone and in combination, at concentrations equal to, above and below their respective minimal inhibitory concentrations (MICs). […] The stock solution was further diluted in Mueller Hinton Broth (MHB). Stock solutions were stored at −80° C.
(§2) The checkerboard assay was performed in microtiter plates. Tigecycline was diluted in the x axis, each column containing a single concentration of tigecycline. Compound 21 was diluted in the y axis, each row containing an equal concentration of the EPI. […] The assay was performed in MHB with a final bacterial inoculum of 5×10^5 CFU/ml (from an early-log phase culture). The microtiter plates were incubated for 20 hours at 35° C. and then read using a microtiter plate reader (Molecular Devices) at 650 nm, as well as by visual observation using a microtiter plate-reading mirror.

[3] = tested on: PAM 1323, mexZ, MexXY-OprM over-expressed, MexAB-OprM low level; assay: microbe, parasite or virus in culture; format: cell-based, P. aeruginosa; design: Tigecycline MIC in the presence of Compound 21: unit not given here; conditions: PAM 1323
Method: as §1, §2

[4] = tested on: PAM 1723, MexAB-OprM over-expressed, ΔMexCD-OprJ ΔMexEF-OprN; assay: microbe, parasite or virus in culture; format: cell-based, P. aeruginosa; design: Tigecycline MIC in the presence of Compound 21: unit not given here; conditions: PAM 1723
Method: as §1, §2

[5] = tested on: PAM 1738, MexCD-OprJ over-expressed, ΔMexAB-OprM ΔMexEF-OprN; assay: microbe, parasite or virus in culture; format: cell-based, P. aeruginosa; design: Tigecycline MIC in the presence of Compound 21: unit not given here; conditions: PAM 1738
Method: as §1, §2

[6] = tested on: PAM 2466, mexR1, MexAB-OprM and MexXY-OprM over-expressed; assay: microbe, parasite or virus in culture; format: cell-based, P. aeruginosa; design: Tigecycline MIC in the presence of Compound 21: unit not given here; conditions: PAM 2466
Method: as §1, §2

[7] = tested on: 110 clinical isolates of P. aeruginosa; assay: Tigecycline susceptibility of P. aeruginosa clinical isolates with fixed concentration of compound 21; format: cell-based
Method: (§3) To further characterize the clinical potential of tigecycline/EPI combinations, the microbiological activity of tigecycline in combination with compound 21 was investigated using clinical isolates of P. aeruginosa and other gram-negative bacteria. In several experiments, described below, the impact of a fixed concentration of compound 21 (2.5 μg/ml) on susceptibility to tigecycline was determined.
Results from an experiment using 110 clinical isolates of P. aeruginosa are presented in FIG. 1, as the distribution of tigecycline MICs with or without the EPI potentiator.

[8] = tested on: Enterobacter aerogenes 19; assay: Antibiotic MIC with fixed concentration of compound 21, Enterobacter aerogenes 19; format: cell-based
Enterobacter cloacae 25 = assay: Antibiotic MIC with fixed concentration of compound 21, Enterobacter cloacae 25; format: cell-based
Klebsiella pneumonia 73 = assay: Antibiotic MIC with fixed concentration of compound 21, Klebsiella pneumonia 73; format: cell-based
Method: as §3
The impact of compound 21 on the activity of tigecycline against representative members of Enterobacteriacaea was also tested.

[9] = tested on: Burkholderia, Proteus, Morganella, Providencia and Serratia; assay: Potentiation of tigecycline against other gram-negative clinical isolates; format: cell-based; conditions: in words
Method: as §3
Strains with decreased susceptibility to tigecycline were also present among representatives of Burkholderia, Proteus, Morganella, Providencia and Serratia. […] While not being bound by any particular theory, it is probable that the lack of potentiation by compound 21 is due to limited uptake of this particular EPI across the outer membrane of these bacteria, rather than the absence of efflux pumps.

[10] = tigecycline with compound 21 at fixed […], 110 clinical isolates
[11] = azithromycin MIC with compound 21
[12] = levofloxacin MIC with compound 21 at […]
[13] = tigecycline MIC with compound 21 at […]

For `NCCC[C@H](N)C(=O)N[C@H](CCc1ccccc1)C(=O)Nc1cnc2ccccc2c1` [Compound 3, 2-(S),5-Diamino-pentanoic acid [3-phenyl-1-(R)-(quinolin-3-ylcarbamoyl)-propyl]-amide], the “change of EPI activity after treatment with supernatant of rabbit kidney homogenate” value [1] was “time-dependent reduction of the EPI activity”, the “degradation in homogenates prepared from frozen cadaverous human kidney” value [2] was “Time-dependent degradation” and the “pH dependence of degradation in human kidney homogenates” value [2] was “stronger at lower pH”.
For `NCCC[C@H](N)C(=O)N[C@H](Cc1ccc(C(F)(F)F)cc1)C(=O)Nc1cnc2ccccc2c1` [Compound 21, 2-(S),5-Diamino-pentanoic acid [1-(R)-(quinolin-3-ylcarbamoyl)-2-(4-trifluoromethyl-phenyl)-ethyl]amide], the “Tigecycline MIC in the presence of Compound 21” value (shortened to “Tigecycline MIC in the presence”) (PAM 1020, wt; Compound 21 0.625 μg/ml) was 2, the “Tigecycline MIC in the presence” value (PAM 1020, wt; Compound 21 1.25 μg/ml) was 1 and the “Tigecycline MIC in the presence” value (PAM 1020, wt; Compound 21 5 μg/ml) was 0.25. For the same compound, the “Tigecycline MIC in the presence” value (PAM 1020, wt; Compound 21 10 μg/ml) was 0.25, the “Tigecycline MIC in the presence” value (PAM 1020, wt; Compound 21 20 μg/ml) was 0.25 and the “Tigecycline MIC in the presence” value (PAM 1020, wt; Compound 21 40 μg/ml) was 0.25. For the same compound, the “Tigecycline MIC in the presence” value (PAM 1020, wt; Compound 21 […]) was 0.5, the “Tigecycline MIC in the presence” value ([3]; Compound 21 0.625 μg/ml) was 2 and the “Tigecycline MIC in the presence” value ([3]; Compound 21 1.25 μg/ml) was 1. The “Tigecycline MIC in the presence” value ([3]; Compound 21 5 μg/ml) was 0.5, the “Tigecycline MIC in the presence” value ([3]; Compound 21 10 μg/ml) was 0.5 and the “Tigecycline MIC in the presence” value ([3]; Compound 21 20 μg/ml) was 0.5. The “Tigecycline MIC in the presence” value ([3]; Compound 21 40 μg/ml) was 0.5, the “Tigecycline MIC in the presence” value ([3]; Compound 21 […]) was 0.5 and the “Tigecycline MIC in the presence” value ([4]; Compound 21 0.625 μg/ml) was 4. For the same compound, the “Tigecycline MIC in the presence” value ([4]; Compound 21 1.25 μg/ml) was 2, the “Tigecycline MIC in the presence” value ([4]; Compound 21 5 μg/ml) was 0.5 and the “Tigecycline MIC in the presence” value ([4]; Compound 21 10 μg/ml) was 0.5. The “Tigecycline MIC in the presence” value ([4]; Compound 21 20 μg/ml) was 0.5, the “Tigecycline MIC in the presence” value ([4]; Compound 21 40 μg/ml) was 0.5 and the “Tigecycline MIC in the presence” value ([4]; Compound 21 […]) was 0.5. The “Tigecycline MIC in the presence” value ([5]; Compound 21 0.625 μg/ml) was 1, the “Tigecycline MIC in the presence” value ([5]; Compound 21 1.25 μg/ml) was 0.5 and the “Tigecycline MIC in the presence” value ([5]; Compound 21 5 μg/ml) was 0.25. The “Tigecycline MIC in the presence” value ([5]; Compound 21 10 μg/ml) was 0.25, the “Tigecycline MIC in the presence” value ([5]; Compound 21 20 μg/ml) was 0.25 and the “Tigecycline MIC in the presence” value ([5]; Compound 21 40 μg/ml) was 0.25. The “Tigecycline MIC in the presence” value ([5]; Compound 21 […]) was 0.25, the “Tigecycline MIC in the presence” value ([6]; Compound 21 0.625 μg/ml) was 4 and the “Tigecycline MIC in the presence” value ([6]; Compound 21 1.25 μg/ml) was 2. For the same compound, the “Tigecycline MIC in the presence” value ([6]; Compound 21 5 μg/ml) was 0.5, the “Tigecycline MIC in the presence” value ([6]; Compound 21 10 μg/ml) was 0.5 and the “Tigecycline MIC in the presence” value ([6]; Compound 21 20 μg/ml) was 0.5. For the same compound, the “Tigecycline MIC in the presence” value ([6]; Compound 21 40 μg/ml) was 0.5, the “Tigecycline MIC in the presence” value ([6]; Compound 21 […]) was 0.5 and the “reduction of tigecycline MIC50 and MIC90 of the population” value ([7]; compound 21 at […]) was 8 fold. For the same compound, the “strains that responded to compound 21” value ([7]; individual strains tested) was 98%, the MIC50, Tigecycline + EPI [7, 10] was 0.25 µg/mL and the MIC90, Tigecycline + EPI [7, 10] was 1 µg/mL. For the same compound, the “Azi + EPI (MIC)” value [8, 11] was 0.5, the “Levo + EPI at […] (MIC)” value [8, 12] was 16 and the “Tig + EPI at […] (MIC)” value [8, 13] was 0.25. For the same compound, the “Azi + EPI (MIC)” value (Enterobacter cloacae 25; [11]) was “≦0.125”, the “Levo + EPI at […] (MIC)” value (Enterobacter cloacae 25; [12]) was 0.5 and the “Tig + EPI at […] (MIC)” value (Enterobacter cloacae 25; [13]) was 0.5. The “Azi + EPI (MIC)” value (Klebsiella pneumonia 73; [11]) was “≦0.125”, the “Levo + EPI at […] (MIC)” value (Klebsiella pneumonia 73; [12]) was 4 and the “Tig + EPI at […] (MIC)” value (Klebsiella pneumonia 73; [13]) was 0.125. The “effect on susceptibility to tigecycline” value [9] was “did not decreased susceptibility to tigecycline”.
